The source of these data is patent US8871767B2, “2-arylimidazo[1,2-B]pyridazine, 2-phenylimidazo[1,2-A]pyridine, and 2-phenylimidazo[1,2-A]pyrazine derivatives” (Hengrui (USA) Ltd., priority 2010, dated 2014).

Where two headings read alike, the source gives them in different places.

Experiment [1] relates to Hedgehog pathway activation (GLi-luciferase reporter) in Shh Light II reporter cells. As to the kind of experiment: Hedgehog pathway activation on Shh Light II reporter cells measured by luciferase activity. Format: cell-based. To be noted: Mus musculus, Shh Light II. In a few lines: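 Shh Light II reporter cells carrying a hedgehog-responsive GLi-luciferase reporter were stimulated either with 500 nM SAG, a direct Smoothened agonist, or with conditioned media containing human Sonic Hedgehog (hShh). Test compounds were evaluated for blocking this pathway activation, quantified by luciferase activity. Cell viability was monitored in parallel with the Celltiter-Blue® assay.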

Experiment [2] deals with Hedgehog pathway activation on 10T1/2/Smo#3 cells (C3H10T1/2 cells transfected with human Smoothened receptor). Put plainly: Hedgehog pathway activation on 10T1/2/Smo#3 cells measured by ALP activity. As to conditions: Mus musculus, C3H 10T1/2, 10T1/2/Smo#3 cells. Format: cell-based. How it is done: Hedgehog conditioned media was obtained by transfecting 293H cells with the full length gene encoding human Sonic Hedgehog (hShh) inserted into the pCMV6 expression vector, which contains a neomycin selectable marker and expresses the protein of interest with a C-terminal FLAG affinity tag. After selection in G418 containing media, conditioned media from Hedgehog expressing clones were tested for the ability to activate the hedgehog-responsive GLi-luciferase reporter in the Shh Light II cell line obtained by license from John Hopkins University (Taipale J, et al. Effects of oncogenic mutations in Smoothened and Patched can be reversed by cyclopamine. Nature 406: 1005-1009, 2000).
C3H10T1/2 cells were transfected with a pCMV expression vector containing the full length gene sequence encoding the human Smoothened receptor. Pooled cells, designated 10T1/2/Smo#3, growing in G418 selection media responded to activation by 10-20% conditioned hShh media with an approximate 5-10 fold increase in alkaline phosphaste (ALP) activity over untransfected parent C3H10T1/2 cells as measured by the conversion of the free acid of 4-methylumbelliferyl phosphate to a fluorescent product.
A test compound library was screened against hShh and 500 nM SAG (a direct agonist of the Smoothened receptor) activated 10T1/2/Smo#3 cells and Shh Light II reporter cells for the ability to block Hedgehog pathway activation. Concurrently, cell viability was measured by utilizing Celltiter-Blue® (Promega, Madison Wis.) viability assay. Active compounds were defined as those that inhibited Hedgehog signaling by greater than 50% with no concurrent loss in cell viability.
Their inhibitory activity against Hedgehog pathway activation on 10T1/2/Smo#3 cells as measured by ALP activity and Shh Light II reporter cells as measured by luciferase activity is shown in Table 1 below. In Table 1, +++ stands for an IC50 value that is less than 0.3 μM, ++ between 0.3 and 3 μM, + between 3 and 30 μM.
Additional data for compounds of the invention is shown below in Table 2. Their inhibitory activities against Hedgehog pathway activation are shown as IC50 values in μM on 10T1/2/Smo#3 cells as measured by ALP activity, or on Shh Light II reporter cells as measured by luciferase activity (hShh activation).

[3] abbreviates: hShh activation, read-out: Shh (IC50, inhibition of Hedgehog pathway activation).
The mark [4] stands for this setting: measured by ALP activity, read-out: ALP (IC50, inhibition of Hedgehog pathway activation).
[5] abbreviates: SAG activation (500 nM SAG), read-out: Shh Light II luciferase activity (SAG activation).
Where [6] appears, read: hShh activation, read-out: Shh Light II luciferase activity (hShh activation).
Where [7] appears, read: hShh activation, ALP activity, read-out: 10T1/2/Smo#3 ALP activity (hShh Activation).

As to `Cc1ccc(-c2cn3nc(-c4ccc(C#N)cc4C(F)(F)F)ccc3n2)cc1NC(=O)C(C)(C)C` [Example 478, N-(5-(6-(4-cyano-2-(trifluoromethyl)phenyl)imidazo[1,2-b]pyridazin-2-yl)-2-methylphenyl)pivalamide], the IC50 is 80 nM in experiment [1] (setting [3]) and 327 nM in experiment [2] (setting [4]).
The corresponding values for `Cc1ccc(-c2cn3nc(-c4cccc(S(=O)(=O)N(C)C)c4)ccc3n2)cc1NC(=O)C(C)(C)C` [Example 451, N-(5-(6-(3-(N,N-dimethylsulfamoyl)phenyl)imidazo[1,2-b]pyridazin-2-yl)-2-methylphenyl)pivalamide] are 960 nM and 1000 nM.
The corresponding values for `CC(C)(C)C(=O)Nc1cc(-c2cn3nc(-c4ccc[nH]4)ccc3n2)ccc1C(F)(F)F` [Example 179, N-(5-(6-(1H-pyrrol-2-yl)imidazo[1,2-b]pyridazin-2-yl)-2-(trifluoromethyl)phenyl)pivalamide] are 454 nM and 1440 nM.
In the case of `CCc1ccc(-c2cn3nc(-c4cccnc4C(F)(F)F)ccc3n2)cc1NC(=O)C1CCCC1` [Example 688, N-(2-ethyl-5-(6-(2-(trifluoromethyl)pyridin-3-yl)imidazo[1,2-b]pyridazin-2-yl)phenyl)cyclopentanecarboxamide], the IC50 in experiment [1] (setting [3]) came to 103 nM; in experiment [2] (setting [4]), 578 nM.
For the compound `CC(C)(C)C(=O)Nc1cc(-c2cn3nc(OCCN4CCOCC4)ccc3n2)ccc1C(F)(F)F` [Example 306, N-(5-(6-(2-morpholinoethoxy)imidazo[1,2-b]pyridazin-2-yl)-2-(trifluoromethyl)phenyl)pivalamide], the values for the IC50 in experiment [1] (setting [3]) and in experiment [2] (setting [4]) were 402 nM and 446 nM, respectively.
The corresponding values for `CCc1ccc(-c2cn3nc(-c4cccnc4C(F)(F)F)ccc3n2)cc1NC(=O)N1CC(F)(F)C1` [Example 695, N-(2-ethyl-5-(6-(2-(trifluoromethyl)pyridin-3-yl)imidazo[1,2-b]pyridazin-2-yl)phenyl)-3,3-difluoroazetidine-1-carboxamide] are 368 nM and 158 nM.
The corresponding values for `CC(=O)NC1CCN(c2ccc3nc(-c4ccc(C)c(NC(=O)C(C)(C)C)c4)cn3n2)C1` (centres unmarked) [Example 362, N-(5-(6-(3-acetamidopyrrolidin-1-yl)imidazo[1,2-b]pyridazin-2-yl)-2-methylphenyl)pivalamide] are 104 nM and 155 nM.
On to `CCN(CC)C(=O)Nc1cc(-c2cn3nc(-c4cccnc4C(F)(F)F)ccc3n2)ccc1F` [Example 685, 1,1-diethyl-3-(2-fluoro-5-(6-(2-(trifluoromethyl)pyridin-3-yl)imidazo[1,2-b]pyridazin-2-yl)phenyl)urea], for which the IC50 came out at 139 nM in experiment [1] (setting [3]) and 274 nM in experiment [2] (setting [4]).
`Cc1cc(Cl)c(-c2cn3nc(-c4cccnc4C(F)(F)F)ccc3n2)cc1NC(=O)C(C)(C)C` [Example 639, N-(4-chloro-2-methyl-5-(6-(2-(trifluoromethyl)pyridin-3-yl)imidazo[1,2-b]pyridazin-2-yl)phenyl)pivalamide]: the IC50 in experiment [1] (setting [5]) was less than 300 nM; in experiment [1] (setting [3]), 30 nM; in experiment [1] (setting [6]), less than 300 nM; in experiment [2] (setting [7]), less than 300 nM; in experiment [2] (setting [4]) it was 55 nM.
For `O=S(=O)(NC1CC1)c1cc(-c2cn3nc(-c4cccnc4C(F)(F)F)ccc3n2)ccc1Cl` [Example 702, 2-chloro-N-cyclopropyl-5-(6-(2-(trifluoromethyl)pyridin-3-yl)imidazo[1,2-b]pyridazin-2-yl)benzenesulfonamide], the IC50 in experiment [1] (setting [3]) is 3980 nM; in experiment [2] (setting [4]), more than 10000 nM.
Turning to `COc1ccc2nc(-c3ccc(C)c(NC(=O)c4ccccc4F)c3)cn2n1` [Example 96, 2-fluoro-N-(5-(6-methoxyimidazo[1,2-b]pyridazin-2-yl)-2-methylphenyl)benzamide], the IC50 was 300 to 3000 nM in experiment [1] (setting [5]); 398 nM in experiment [1] (setting [3]); 300 to 3000 nM in experiment [1] (setting [6]); 300 to 3000 nM in experiment [2] (setting [7]); 1090 nM in experiment [2] (setting [4]).
Turning to `CC(C)(C(=O)Nc1cc(-c2cn3nc(-c4cccnc4C(F)(F)F)ccc3n2)c(F)cc1Cl)C(F)(F)F` [Example 660, N-(2-chloro-4-fluoro-5-(6-(2-(trifluoromethyl)pyridin-3-yl)imidazo[1,2-b]pyridazin-2-yl)phenyl)-3,3,3-trifluoro-2,2-dimethylpropanamide], the IC50 in experiment [1] (setting [3]) turned out to be 32 nM; in experiment [2] (setting [4]), 17 nM.
As to `CC(C)(C)C(=O)Nc1cc(-c2cn3nc(C#N)ccc3n2)ccc1C(F)(F)F` [Example 173, N-(5-(6-cyanoimidazo[1,2-b]pyridazin-2-yl)-2-(trifluoromethyl)phenyl)pivalamide], the IC50 in experiment [1] (setting [5]) was 3000 to 30000 nM; in experiment [1] (setting [3]), 4400 nM; in experiment [1] (setting [6]) it was 3000 to 30000 nM; in experiment [2] (setting [7]), 3000 to 30000 nM; in experiment [2] (setting [4]) it was 4430 nM.
For `COc1cccc(-c2ccc3nc(-c4ccc(C(F)(F)F)c(NC(=O)C(C)(C)C)c4)cn3n2)c1F` [Example 206, N-(5-(6-(2-fluoro-3-methoxyphenyl)imidazo[1,2-b]pyridazin-2-yl)-2-(trifluoromethyl)phenyl)pivalamide], the IC50 in experiment [1] (setting [3]) came to 341 nM; in experiment [2] (setting [4]), 246 nM.
The corresponding values for `Cc1ccc(-c2cn3nc(NCc4ccc(C(=O)Nc5ccccc5N)cc4)ccc3n2)cc1NC(=O)C(C)(C)C` [compound 599] are 48 nM and 248 nM.
Turning to `Cc1ccc(-c2cn3nc(N4CCS(=O)(=O)CC4)ccc3n2)cc1NC(=O)C(C)(C)C` [Example 285, N-{5-[6-(1,1-dioxidothiomorpholin-4-yl)imidazo[1,2-b]pyridazin-2-yl]-2-methylphenyl}-2,2-dimethylpropanamide], the IC50 came out at 788 nM in experiment [1] (setting [3]) and 1010 nM in experiment [2] (setting [4]).
The corresponding values for `CC(CC(=O)Nc1cc(-c2cn3nc(-c4cccnc4C(F)(F)F)ccc3n2)c(F)cc1Cl)C(F)(F)F` (centres unmarked) [Example 661, N-(2-chloro-4-fluoro-5-(6-(2-(trifluoromethyl)pyridin-3-yl)imidazo[1,2-b]pyridazin-2-yl)phenyl)-4,4,4-trifluoro-3-methylbutanamide] are 31 nM and 15 nM.
Consider `Cc1ccc(-c2cn3nc(-c4cccnc4C(F)(F)F)ccc3n2)cc1NC(=O)c1cccc(C=CC(=O)Nc2ccccc2N)c1` [compound 623, 3-(3-((2-aminophenyl)amino)-3-oxoprop-1-en-1-yl)-N-(2-methyl-5-(6-(2-(trifluoromethyl)pyridin-3-yl)imidazo[1,2-b]pyridazin-2-yl)phenyl)benzamide], for which the IC50 in experiment [1] (setting [5]) is 300 to 3000 nM; in experiment [1] (setting [3]) it was 198 nM; in experiment [1] (setting [6]), less than 300 nM; in experiment [2] (setting [7]), less than 300 nM; in experiment [2] (setting [4]), 145 nM.
Take `CCOC(=O)CCCCCOc1ccc(C(F)(F)F)c(-c2ccc3nc(-c4ccc(C)c(NC(=O)C(C)(C)C)c4)cn3n2)c1` [Example 424, ethyl 6-(3-(2-(4-methyl-3-pivalamidophenyl)imidazo[1,2-b]pyridazin-6-yl)-4-(trifluoromethyl)phenoxy)hexanoate]: the IC50 in experiment [1] (setting [3]) turned out to be 7460 nM; in experiment [2] (setting [4]), 4100 nM.
The corresponding values for `Cc1ccc(-c2cn3nc(-c4cc(Cl)cnc4F)ccc3n2)cc1NC(=O)C(C)(C)C` [Example 279, N-(5-(6-(5-chloro-2-fluoropyridin-3-yl)imidazo[1,2-b]pyridazin-2-yl)-2-methylphenyl)pivalamide] are 282 nM and 129 nM.
In the case of `CC(C)(C)C(=O)Nc1cc(-c2cn3nc(N4CCCCC4)ccc3n2)ccc1C(F)(F)F` [Example 288, N-(5-(6-(piperidin-1-yl)imidazo[1,2-b]pyridazin-2-yl)-2-(trifluoromethyl)phenyl)pivalamide], the IC50 worked out at 345 nM in experiment [1] (setting [3]) and 258 nM in experiment [2] (setting [4]).
For the compound `Cc1ccc(-c2cn3nc(N4CCOCC4)ccc3n2)cc1NC(=O)C(C)(C)C` [Example 128, N-(2-methyl-5-(6-morpholinoimidazo[1,2-b]pyridazin-2-yl)phenyl)pivalamide], the IC50 in experiment [1] (setting [5]) was 3000 to 30000 nM; in experiment [1] (setting [3]), more than 10000 nM; in experiment [1] (setting [6]) it was 3000 to 30000 nM; in experiment [2] (setting [7]), 300 to 3000 nM; in experiment [2] (setting [4]) it was 422 nM.
